Measured values: US8343729B2, “Luciferin luminescent substrate of marine ostracod crustacean and method for production thereof” (National Institute of Advanced Industrial Science and …, priority 2005, dated 2013)

Test system: Marine ostracod crustacean luciferase
Experiment: Measurement of luminescence spectra of marine ostracod crustacean luciferins with luciferase
Type: biochemical
Settings: luciferase 100 ng/mL, 50 mM Tris-HCl buffer (pH 7.5)

Row | Structure (SMILES) | direction of shift of biological luminescence wavelength compared with native luciferin (11) | shift of luminescence maximum wavelength to the long wavelength side compared with native luciferin (spectrum integrated for 30 seconds)
1 | N=C(N)NCCCc1[nH]c(-c2c[nH]c3ccccc23)cn2c(=O)c(Cc3ccccc3)nc1-2 [Compound 30] | shifted to the short wavelength | 
2 | CC[C@H](C)c1nc2c(/C=C/CNC(=N)N)[nH]c(-c3c[nH]c4ccccc34)cn-2c1=O [Compound 17] |  | about 15 nm
3 | CCC(C)c1nc2c(CCCNC(=N)N)[nH]c(-c3ccc4ccccc4c3)cn-2c1=O (centres unmarked) [Compound 36] | shifted to the short wavelength | 

Second part, the compound after the results:

Row | direction of shift of biological luminescence wavelength compared with native luciferin (11) | shift of luminescence maximum wavelength to the long wavelength side compared with native luciferin (spectrum integrated for 30 seconds) | Structure (SMILES)
4 | shifted to the long wavelength |  | CCC(c1ccccc1)c1nc2c(CCCNC(=N)N)[nH]c(-c3c[nH]c4ccccc34)cn-2c1=O (centres unmarked) [Compound 34]
5 | shifted to the long wavelength |  | CC(c1ccccc1)c1nc2c(CCCNC(=N)N)[nH]c(-c3c[nH]c4ccccc34)cn-2c1=O (centres unmarked) [Compound 32]
